Where no end group is shown, it is not given here.
Assays:
[1] = tested on: sweetness; details: cited from earlier work; for Sweetness relative to sugar (sucrose): related art
[2] = cited from earlier work; for Thermal stability: related art
[3] = Thermal stability: heated at 80° C. for 4 hours in 50 mM Tris-HCl (pH 8.0), sweetness change level measured by the 20 subjects; format: physicochemical; details: primary variants
Protocol: On the basis of the results measured in Example 3-1, 100 mg of each of the brazzein variants having high sweetness, that is, brazzein(H30K) set forth in SEQ ID NO: 99, brazzein(H30R) set forth in SEQ ID NO: 100, brazzein(E35D) set forth in SEQ ID NO: 109, brazzein(E40A) set forth in SEQ ID NO: 113, brazzein(E40A) set forth in SEQ ID NO: 113, brazzein(E40D) set forth in SEQ ID NO: 114, brazzein(E40K) set forth in SEQ ID NO: 115, brazzein(E40H) set forth in SEQ ID NO: 116 and brazzein(E40R) set forth in SEQ ID NO: 117, was dissolved in a 50 mM Tris-HCl (pH 8.0) solution, and heated at 80° C. for 4 hours. Based on the sweetness measured before the heat treatment of the respective primary brazzein variants, a sweetness change level of each primary brazzein variant was then measured by the 20 subjects in the same manner as in Example 3-1.
Also, the brazzein multi-variants were measured for thermal stability in the same manner as in Example 3-2. […] From the high performance liquid chromatography analysis of the quaternary variants out of the brazzein multi-variants, it was confirmed that the quaternary variants maintained their constant thermal stability in spite of the fact that the quaternary variants had different structural properties than the minor-type brazzein protein.

[4] = tested on: human sense of taste; experiment: Sweetness measured by human sense of taste (20 trained subjects, minimum concentration at which sweetness is first sensed); format: in vivo; details: for Multiples of increased sweetness to minor-type brazzein / Minimum stimulation level in which one senses sweetness for first time: primary brazzein variants; for Multiples of increased sweetness to minor-type brazzein: relative to minor-type brazzein; for Minimum stimulation level in which one senses sweetness for first time: 20 trained subjects; for Sweetness ratios of sucrose (1 g/100 ml) to primary brazzein variants (minor-type brazzein: 2000): relative to 1 g/100 ml sucrose threshold
Protocol: Since the recombinant brazzein according to the present invention is not a sucrose-based compound having a cyclic ring, the sweetness of the recombinant brazzein was not measured using a saccharometer. Therefore, the activity of the recombinant brazzein was measured using the human sense of taste. Sugar content measurement was performed on 20 subjects who were trained to feel substantially the same minimum concentration of sucrose in which they could sense sweetness using a sucrose solution. That is, a concentration of each brazzein variant in which the subjects could sense sweetness for the first time was measured. Also, a sweetness ratio of the sucrose solution to the wild-type brazzein was 1 g/100 ml, which was a minimum stimulation level in which the subjects could sense sweetness. Also, a sweetness ratio of the minor-type brazzein protein to the wild-type brazzein was 500 μg/100 ml, which was a minimum stimulation level in which the subjects could sense sweetness. Therefore, the sweetness was calculated using the sweetness ratios (That is, 1/0.0005=2000 for the minor-type brazzein).
Also, the brazzein multi-variants were measured for activity (sweetness) in the same manner as in Example 3-1.

Q: Which “Sweetness relative to sugar (sucrose)” value [1] does the source give for `O=C1NS(=O)(=O)c2ccccc21` [saccharin] here?
A: The value was “approximately 500 times”.

Q: Which “Sweetness relative to sugar (sucrose)” value [1] does the source give for `C=C1C[C@@]23CC[C@H]4[C@@](C)(CCC[C@@]4(C)C(=O)O[C@@H]4O[C@H](CO)[C@@H](O)[C@H](O)[C@H]4O)[C@@H]2CC[C@]1(O[C@@H]1O[C@H](CO)[C@@H](O)[C@H](O)[C@H]1O[C@@H]1O[C@H](CO)[C@@H](O)[C@H](O)[C@H]1O)C3` [stevioside] here?
A: The value was 200 times.

Q: What does the source list for “Brazzein: sweetener protein extracted from the fruit of Pentadiplandra brazzeana (Baillon) (QDKCKKVYENYPVSKCQLANQCNYDCKLDKHARSGECFYDEKRNLQCICDYCEY; UniProt P56552 1-54, looked up)”?
A: Solubility and pH stability in water ([2]; Gao et al. 1999): very high; Thermal stability [2]: very high

Q: For “E35D: primary brazzein variant: Glu at position 35 of minor-type brazzein substituted with Asp (DKCKKVYENYPVSKCQLANQCNYDCKLRKHARSGDCFYDEKRNLQCICDYCEY; Brazzein(E35D)) [Brazzein E35D]”, which “Thermal stability (relative activity after heat treatment)” value [3] is on record?
A: The value was “maintained their thermal stabilities”.

Q: And the “Multiples of increased sweetness to minor-type brazzein” value (“Multiples of increased sweetness” below) [4]?
A: The value was 3.3.

Q: And the “Minimum stimulation level in which one senses sweetness for first time” value (from here on “Minimum stimulation level”) [4]?
A: The value was 150 μg/100 ml.

Q: What about the “Sweetness ratios of sucrose (1 g/100 ml) to primary brazzein variants (minor-type brazzein: 2000)” value (from here on “Sweetness ratios of sucrose (1 g/100 ml)”) [4] of the same molecule?
A: The value was 6,600.

Q: For “E40A: primary brazzein variant: Glu at position 40 of minor-type brazzein substituted with Ala (DKCKKVYENYPVSKCQLANQCNYDCKLRKHARSGECFYDAKRNLQCICDYCEY; Brazzein(E40A)) [Brazzein E40A]”, which “Thermal stability (relative activity after heat treatment)” value [3] is on record?
A: The value was “maintained their thermal stabilities”.

Q: What about the “Multiples of increased sweetness” value [4] of the same molecule?
A: The value was 3.3.

Q: And the “Minimum stimulation level” value [4]?
A: The value was 150 μg/100 ml.

Q: What about the “Sweetness ratios of sucrose (1 g/100 ml)” value [4] of the same molecule?
A: The value was 6,600.

Q: For “E40D: primary brazzein variant: Glu at position 40 of minor-type brazzein substituted with Asp (DKCKKVYENYPVSKCQLANQCNYDCKLRKHARSGECFYDDKRNLQCICDYCEY; Brazzein(E40D)) [Brazzein E40D]”, which “Thermal stability (relative activity after heat treatment)” value [3] is on record?
A: Its value is “maintained their thermal stabilities”.

Q: What about the “Minimum stimulation level” value [4] of the same molecule?
A: The value was 150 μg/100 ml.

Q: And the “Sweetness ratios of sucrose (1 g/100 ml)” value [4]?
A: The value was 6,600.

Q: What does the source list for “E40K: primary brazzein variant: Glu at position 40 of minor-type brazzein substituted with Lys (DKCKKVYENYPVSKCQLANQCNYDCKLRKHARSGECFYDKKRNLQCICDYCEY; Brazzein(E40K)) [Brazzein E40K]”?
A: Thermal stability (relative activity after heat treatment) [3]: maintained their thermal stabilities; Multiples of increased sweetness to minor-type brazzein [4]: 3.3; Minimum stimulation level in which one senses sweetness for first time [4]: 150 μg/100 ml; Sweetness ratios of sucrose (1 g/100 ml) to primary brazzein variants (minor-type brazzein: 2000) [4]: 6,600

Q: Which “Thermal stability (relative activity after heat treatment)” value [3] does the source give for “E40R: primary brazzein variant: Glu at position 40 of minor-type brazzein substituted with Arg (DKCKKVYENYPVSKCQLANQCNYDCKLRKHARSGECFYDRKRNLQCICDYCEY; Brazzein(E40R)) [Brazzein E40R]” here?
A: Its value is “maintained their thermal stabilities”.

Q: And the “Multiples of increased sweetness” value [4]?
A: The value was 2.

Q: And the “Minimum stimulation level” value [4]?
A: The value was 250 μg/100 ml.

Q: And the “Sweetness ratios of sucrose (1 g/100 ml)” value [4]?
A: Its value is 4,000.

Q: With “H30R: primary brazzein variant: His at position 30 of minor-type brazzein substituted with Arg (DKCKKVYENYPVSKCQLANQCNYDCKLRKRARSGECFYDEKRNLQCICDYCEY; Brazzein(H30R)) [Brazzein H30R]” as the molecule, how does the “Thermal stability (relative activity after heat treatment)” value [3] read?
A: Its value is “maintained their thermal stabilities”.

Q: What about the “Multiples of increased sweetness” value [4] of the same molecule?
A: Its value is 3.3.

Q: And the “Minimum stimulation level” value [4]?
A: Its value is 150 μg/100 ml.

Q: What about the “Sweetness ratios of sucrose (1 g/100 ml)” value [4] of the same molecule?
A: The value was 6,600.

Q: For Monellin, which Thermal stability [2] is on record?
A: Its Thermal stability is “low”.

Q: What about the “Sweetness relative to sugar (sucrose)” value [1] of the same molecule?
A: Its value is 3,000 times.

Q: For “minor-type brazzein: wild-type minor type of brazzein, 53 amino acid residues without pyroglutamic acid at the amino-terminal region (DKCKKVYENYPVSKCQLANQCNYDCKLRKHARSGECFYDEKRNLQCICDYCEY; ends and bridges not checked; cysteine pairing not given here) [reference compound]”, which “Minimum stimulation level” value [4] is on record?
A: Its value is 500 μg/100 ml.

Q: And the “Sweetness ratios of sucrose (1 g/100 ml)” value [4]?
A: The value was 2000.

Q: What about the “Sweetness relative to the major type of brazzein” value ([1]; Assadi-Porter et al. 2000) of the same molecule?
A: The value was “approximately twice”.
